The source of these data is patent publication US6080871A, “Sulfonamides and sulfamides as H3 receptor antagonists” (James Black Foundation Limited, priority 1996, dated 2000).

One assay deals with T1, Histamine H3 (Cavia porcellus, UniProt Q9JI35).
T1 construct: ileum longitudinal muscle myenteric plexus membranes; from tissue; host or cells: ileum longitudinal muscle myenteric plexus membranes of male Dunkin Hartley guinea pigs
Nature of the assay: Histamine H3 radioligand binding assay, [3H]-R-α-methylhistamine, guinea pig ileum longitudinal muscle myenteric plexus membranes. Particulars: 3 nM [3H]-R-α-methylhistamine, 165 min, 21±3° C., Cheng Prusoff, variance ±0.12 log units; for Ki: read-out: pK1 (binding assay) (converted). How it is done: Histamine H3 Radioligand Binding Assay
Male Dunkin Hartley guinea pigs (200-300 g) were used. The small intestine was rapidly removed (cut ~5 cm from caecum and 5 cm from stomach) and placed in ice-cold 20 mM Hepes-NaOH buffer (pH7.4 at 21±3° C.). The tissue was cut into ~10 cm segments, flushed through with ice-cold 20 mM Hepes-NaOH buffer and placed in a beaker containing fresh buffer at 4° C. 10 cm segments of ileum were threaded onto a glass pipette and the longitudinal muscle myenteric plexus was peeled away from the circular muscle using damp cotton-wool. Longitudinal muscle myenteric plexus was immediately placed in ice-cold Viaspan® solution (~100 ml for tissue from 3 guinea pigs) and placed in the refrigerator for 24 hours.
Pre-soaked tissue was weighed and minced with scissors. The tissue was then homogenised in Viaspan® using a polytron (Kinematica AG; PT-DA 3020/2TS, 3×~1-2 s). 50 ml of 500 mM Tris HCl (pH6.9 at 21±3° C.) was added to the tissue and the mixture centrifuged at 39,800×g for 12 min at 4° C. The supernatant was discarded and rehomogenised in 100 ml ice-cold 20 mM Hepes-NaOH buffer (pH7.4 at 21±3° C.) using a teflon-in-glass homogeniser (setting 10; 3×). The homogenate was recentrifuged at 39,800×g and the pellet resuspended in 20 mM Hepes-NaOH buffer (pH7.4 at 21±3° C.), to a tissue concentration of 50 mg.ml^-1, using a polytron (Brinkman, PT10, 3×~1 s).
Guinea pig ileum longitudinal muscle myenteric plexus membranes (400 μl) were incubated for 165 min at 21±3° C. in a final volume of 500 μl with 20 mM Hepes-NaOH buffer containing [^3 H]-R-α-methylhistamine (50 μl; 3 nM) and competing compound. Total and non-specific binding of [^3 H]-R-α-methylhistamine were defined using 50 μl of buffer and 50 μl of 10 μM thioperamide, respectively. The assay was terminated by rapid filtration through Whatman GF/B filters, presoaked (2 hr) in 0. 1% polyethyleneimine,using a Brandell Cell Harvester. The filters were washed (3×3 ml) with ice-cold 50 mM Tris-HCl (pH6.9 at 21±3° C.), transferred into scintillation vials, 5 ml liquid scintillation cocktail was added and after 4 hours the bound radioactivity was determined by counting (4 min) in a Beckman liquid scintillation counter.
Data are analysed using GraphPad prism and the general equation for a competition curve with variable Hill slope (nH).
Y=Non-specific binding+(Total binding-Non-specific binding)/1+10^((logIC.sbsp.50^-X).n.sbsp.H^)
X is the log concentration of competing compound, Y is the binding obtained at each concentration of X, pIC50 is the concentration of the competitor required to compete for half of the specific binding.
The IC50 is converted to the K1 using the Cheng Prusoff equation, […]
IC50 is the concentration of competitor required to compete for half the specific binding, L is the radioligand concentration used, KD is the equilibrium dissociation constant for the radioligand determined by saturation experiments.
(§1) Typical variance in the functional assay is ±0.15 log units. Typical variance in the binding assay is ±0.12 log units. This means that if the discrepancy between the two assays is greater than about 0.5 log units, then this difference on average is significant.

A further assay deals with T2, H3 receptor (Cavia porcellus, UniProt Q9JI35).
T2 construct: the longitudinal muscle layer and adhering myenteric plexus was teased away; from tissue; host or cells: ileal longitudinal muscle with adhering myenteric plexus of male Dunkin-Hartley guinea pigs
Nature of the assay: H3 receptor bioassay (functional assay), guinea pig ileal longitudinal muscle myenteric plexus. Format: cell-based. As to conditions: electrically stimulated guinea pig ileum; for Kb: read-out: pKB (functional assay) (converted). How it is done: The biological activity of the compounds of the examples was measured using the ileal longitudinal muscle, myenteric plexus assay described by Paton and Aboo Zar (J. Physiol. 194, 13-33 (1968)). Male Dunkin-Hartley guinea pigs (250-300 g) were employed. Briefly, a 50 cm portion of ileum proximal to the caecum was removed, after discarding the terminal 20 cm. Ileal segments (3 cm) were cleaned by passing Krebs-Henseleit buffer containing 3 μM mepyramine gently through the ileum using a Pasteur pipette (size: 13.8 cm length, 0.65 cm diameter). To avoid unnecessary damage to the tissue, Krebs-Henseleit buffer was passed through the ileal segment, while it was lying horizontally on a petri dish. Therefore, the ileum was not over-distended and the buffer flowed through with ease. Each segment was then passed over a Pasteur pipette and the longitudinal muscle layer and adhering myenteric plexus was teased away using moist cotton wool, by stroking tangentially away from the mesenteric attachment. The tissues were suspended in 20 ml organ baths containing Krebs-Henseleit buffer at 37±1° C. and gassed with […]. The tissues were ligated to two parallel stainless steel wires, situated between two platinum electrodes (0.76 cm length, 0.06 cm diameter). All measurements were recorded isometrically (Grass FTO3 transducer). Following an initial loading tension of 1 g, the tissues were stimulated with electrical pulses at a frequency of 0.1 Hz and a pulse duration of 0.5msec, as described by Kosterlitz & Watt (1968). Initially, the tissues were stimulated at supramaximal (1.3 fold times maximal) voltage for a period of 30 min and then the tissues were washed and re-stimulated. A "sighter dose" of the selective histamine H3 -receptor agonist, R-(α)-methylhistamine(0.3 μM) (Arrang et al., 1987), was administered. Upon generation of response, the "sighter dose" was removed from the tissues by "washout" (6 washes over 60 min) and during this period the electrical stimulation was switched off. The tissues were then re-stimulated and allowed to stabilise prior to the addition of drug treatments, which were allocated on a randomised block basis to the organ baths. Following the incubation period, a single cumulative E/[A] curve was obtained. The experimental E/[A] curve data was expressed as the percentage inhibition of the peak height of electrically-stimulated contraction. Antagonist affinity values were calculated from the degree of rightward shift of the R-(α)-methylhistamine E/[A] curves using Schild's methods (Arunlatcshama & Schild, 1949).
as §1

The mark [1] stands for this setting: antagonism of R-(α)-methylhistamine E/[A] curve, Schild's methods, variance ±0.15 log units.

Each structure is given as a SMILES string. Bounds are passed on as bounds.

T1 sequence (Q9JI35 whole entry): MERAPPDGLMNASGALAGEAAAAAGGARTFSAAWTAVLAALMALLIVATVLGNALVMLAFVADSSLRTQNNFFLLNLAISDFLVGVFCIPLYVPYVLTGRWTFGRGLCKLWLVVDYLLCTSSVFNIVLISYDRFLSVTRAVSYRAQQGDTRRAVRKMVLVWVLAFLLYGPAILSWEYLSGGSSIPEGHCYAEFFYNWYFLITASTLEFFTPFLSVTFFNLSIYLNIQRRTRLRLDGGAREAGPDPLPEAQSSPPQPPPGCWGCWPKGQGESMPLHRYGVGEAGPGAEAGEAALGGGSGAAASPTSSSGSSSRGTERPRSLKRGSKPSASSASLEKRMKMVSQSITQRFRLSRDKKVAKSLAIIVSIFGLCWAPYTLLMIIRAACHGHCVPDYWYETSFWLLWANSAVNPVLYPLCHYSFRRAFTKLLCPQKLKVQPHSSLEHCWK
T2 sequence (Q9JI35 whole entry): as above

For `O=S(=O)(NCCCCCCc1c[nH]cn1)NCc1ccc(C(F)(F)F)cc1` [Example 60, N-[6-(4(5)-Imidazoyl)hexyl]-N'-(4-(trifluoromethyl)phenyl)methyl-sulfamide], on Histamine H3, the Ki was 4.57 nM. Also, the Kb on H3 receptor (setting [1]) was 14.5 nM.

Take `O=S(=O)(NCCCCCCCCCCc1c[nH]cn1)c1ccc2ccccc2c1` [Example 31, N-[10-(4(5)-Imidazoyl)decyl]-2-naphthalenesulfonamide]: the “pK1 (binding assay)” value at Histamine H3 turned out to be 7.07. Also, on H3 receptor (setting [1]), the Kb is 1620 nM.

Take `O=S(=O)(NCCCCCCCc1c[nH]cn1)c1ccc2ccccc2c1` [Example 29]: the “pK1 (binding assay)” value on Histamine H3 is reported as 7.40. Also, the Kb at H3 receptor (setting [1]) was 132 nM.

Regarding `CN(CCCCc1c[nH]cn1)S(=O)(=O)NCc1ccc(Cl)cc1` [Example 69, N'-(4-Chlorophenyl)methyl-N-[4-(4(5)-imidazoyl)butyl]-N-methyl-sulfamide], the Ki on Histamine H3 was 1.86 nM. Also, the Kb at H3 receptor (setting [1]) was 1.2 nM.

As to `O=S(=O)(NCCCCCCCCc1c[nH]cn1)NCc1ccc(Cl)cc1` [Example 39, N-[8-(4(5)-Imidazoyl)octyl]-N'-(4-chlorophenyl)methyl-sulfamide], on Histamine H3, the Ki was 15.8 nM. In addition, the Kb on H3 receptor (setting [1]) was 42.7 nM.

As to `O=S(=O)(NCCCCc1c[nH]cn1)NCc1ccc(C(F)(F)F)cc1` [Example 47, N-[4-(4(5)-Imidazoyl)butyl]-N'-(4-(trifluoromethyl)phenyl)methyl-sulfamide], on Histamine H3, the Ki was 2.69 nM. The Kb at H3 receptor (setting [1]) was 3.31 nM.

As to `O=S(=O)(NCCCCCCc1c[nH]cn1)c1ccc2ccccc2c1` [Example 8], the “pK1 (binding assay)” value at Histamine H3 is on record as 7.49. The Kb on H3 receptor (setting [1]) is 77.6 nM.

For `O=S(=O)(Cc1ccc(Cl)cc1)NCCCCc1c[nH]cn1` [Example 10, N-[4-(4(5)-Imidazoyl)butyl]-(4-chlorophenyl)methanesulfonamide], on Histamine H3, the “pK1 (binding assay)” value amounted to 8.53. In addition, the Kb on H3 receptor (setting [1]) was 2.4 nM.

Regarding `O=S(=O)(NCCCCc1c[nH]cn1)c1ccc2ccccc2c1` [Example 7, N-[4-(4(5)-Imidazoyl)butyl]-2-naphthalenesulfonamide], the “pK1 (binding assay)” value on Histamine H3 was found to be 7.42. Also, the Kb at H3 receptor (setting [1]) was 155 nM.

Regarding `O=S(=O)(NCCCc1c[nH]cn1)NCc1ccc(Cl)cc1` [Example 14, N-[3-(4(5)-Imidazoyl)propyl]-N'-(4-chlorophenyl)methyl-sulfamide], the “pK1 (binding assay)” value at Histamine H3 is 7.28. Moreover, the Kb at H3 receptor (setting [1]) is 91.2 nM.

As to `O=S(=O)(NCCCCCc1c[nH]cn1)NCc1ccc(F)cc1` [Example 65, N-[5-(4(5)-Imidazoyl)pentyl]-N'-(4-fluorophenyl)methyl-sulfamide], on Histamine H3, the Ki was 10.5 nM. Also, the Kb at H3 receptor (setting [1]) is 47.9 nM.

With `O=S(=O)(NCCc1c[nH]cn1)c1ccc2ccccc2c1` [Example 1, N-[2-(4(5)-Imidazoyl)ethyl]-2-naphthalenesulfonamide], at Histamine H3, the “pK1 (binding assay)” value stood at 7.77. Moreover, the Kb at H3 receptor (setting [1]) is 200 nM.

Turning to `CN(Cc1ccc(Cl)cc1)S(=O)(=O)NCCCCc1c[nH]cn1` [Example 70], the Ki on Histamine H3 was 11.2 nM. At H3 receptor (setting [1]), the Kb is 15.8 nM.

Take `O=S(=O)(NCCCCc1c[nH]cn1)NCc1ccc(Cl)cc1` [Example 13, N-[4-(4(5)-Imidazoyl)butyl]-N'-(4-chlorophenyl)methyl-sulfamide]: on Histamine H3, the “pK1 (binding assay)” value is reported as 8.56. Also, the Kb on H3 receptor (setting [1]) is 2.09 nM.

Consider `O=S(=O)(NCCCCc1c[nH]cn1)NCCc1ccc(Cl)cc1` [Example 57, N-[4-(4(5)-Imidazoyl)butyl]-N'-2-(4-chlorophenyl)ethyl-sulfamide], for which, at Histamine H3, the Ki was 14.5 nM. Also, at H3 receptor (setting [1]), the Kb was 11 nM.

With `O=S(=O)(CCc1ccc(Cl)cc1)NCCCCCc1c[nH]cn1` [Example 54, N-[5-(4(5)-Imidazoyl)pentyl]-2-(4-chlorophenyl)ethanesulfonamide], the Ki at Histamine H3 is 10 nM. Further, the Kb on H3 receptor (setting [1]) is 15.8 nM.

`O=S(=O)(NCCCCCCc1c[nH]cn1)NCc1ccc(Br)cc1` [Example 58]: the Ki at Histamine H3 is 4.37 nM. Moreover, the Kb at H3 receptor (setting [1]) is 1.05 nM.

For the molecule `O=S(=O)(NCCCCc1c[nH]cn1)NCc1ccc(-c2ccccc2)cc1` [Example 49, N-[4-(4(5)-Imidazoyl)butyl]-N'-(4-biphenyl)methyl-sulfamide], the “pK1 (binding assay)” value on Histamine H3 turned out to be 8.12. The Kb at H3 receptor (setting [1]) was 4.79 nM.

`CN(CCCCc1c[nH]cn1)S(=O)(=O)N(C)Cc1ccc(Cl)cc1` [Example 68, N'-(4-Chlorophenyl)methyl-N,N'-dimethyl-N-[4-(4(5)-imidazoyl)butyl]-sulfamide]: on Histamine H3, the Ki is 11.2 nM. For the same molecule, the Kb at H3 receptor (setting [1]) was 17 nM.

Consider `O=S(=O)(/C=C/c1ccccc1)NCCc1c[nH]cn1` [Example 20, (E)-N-[2-(4(5)-Imidazoyl)ethyl]-2-phenylethenesulfonamide], for which the “pK1 (binding assay)” value at Histamine H3 was determined as 7.26. In addition, the Kb on H3 receptor (setting [1]) is > 3160 nM.

As to `O=S(=O)(NCCCCCCc1c[nH]cn1)NCc1ccc(F)cc1` [Example 59, N-[6-(4(5)-Imidazoyl)hexyl]-N'-(4-fluorophenyl)methyl-sulfamide], the Ki at Histamine H3 is 8.32 nM. At H3 receptor (setting [1]), the Kb is 3.72 nM.

As to `C[C@H](Cc1c[nH]cn1)NS(=O)(=O)c1ccc2ccccc2c1` [Example 71, (R)-(+)-N-[2-(4(5)-Imidazoyl)-1-methyl-ethyl]-2-naphthalenesulfonamide], the “pK1 (binding assay)” value on Histamine H3 is listed as 8.44. On H3 receptor (printed in the pKB column, read-out: p[A]50 (functional assay) (converted)), the EC50 is 776 nM.

For the molecule `O=S(=O)(NCCCCCCc1c[nH]cn1)NCc1ccc(I)cc1` [Example 61, N-[6-(4(5)-Imidazoyl)hexyl]-N'-(4-iodophenyl)methyl-sulfamide], at Histamine H3, the “pK1 (binding assay)” value is given as 8.46. For the same molecule, the “pKB (functional assay)” value at H3 receptor (setting [1]) is 8.62.

In the case of `O=S(=O)(NCCCCCc1c[nH]cn1)NCc1ccc(I)cc1` [Example 66, N-[5-(4(5)-Imidazoyl)pentyl]-N'-(4-iodophenyl)methyl-sulfamide], the Ki at Histamine H3 is 7.76 nM. Also, the Kb at H3 receptor (setting [1]) was 8.71 nM.
